# According to PubChem BioAssay AID328 (DTP/NCI, 2004):
# Values joined by “and” are separate entries in the source; they are usually repeats but may differ in a detail not shown here. Equal entries are not always repeated. Inconclusive results and toxic doses are left out.
# System: BDF1 mice, P388 leukemia ip, median survival T/C
# Assay: NCI In Vivo Anticancer Drug Screen. Data for tumor model P388 Leukemia (intraperitoneal) in B6D2F1 (BDF1) mice
# Conditions: endpoint: median survival time, higher = longer survival
# Procedure, shortened: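 In tumour-bearing mice, survival after compound treatment is set against the vehicle group and given as a quotient.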
# [1] = dose: 1.0 mg/kg/injection, schedule: Q01DX009 (ip), vehicle: saline
# [2] = dose: 100.0 mg/kg/injection, schedule: Q04DX003 (ip), vehicle: saline
# [3] = dose: 50.0 mg/kg/injection, schedule: Q01DX009 (ip), vehicle: saline with Tween-80
# [4] = dose: 100.0 mg/kg/injection, schedule: Q01DX009 (ip), vehicle: saline with Tween-80
# [5] = dose: 200.0 mg/kg/injection, schedule: Q01DX009 (ip), vehicle: saline with Tween-80
# [6] = dose: 50.0 mg/kg/injection, schedule: Q01DX009 (ip), vehicle: saline
# [7] = dose: 100.0 mg/kg/injection, schedule: Q01DX009 (ip), vehicle: saline
# [8] = dose: 200.0 mg/kg/injection, schedule: Q01DX009 (ip), vehicle: saline
# [9] = dose: 200.0 mg/kg/injection, schedule: Q04DX003 (ip), vehicle: saline
# [10] = dose: 400.0 mg/kg/injection, schedule: Q04DX003 (ip), vehicle: saline
# [11] = dose: 100.0 mg/kg/injection, schedule: Q04DX003 (ip), vehicle: saline with Tween-80
# [12] = dose: 200.0 mg/kg/injection, schedule: Q04DX003 (ip), vehicle: saline with Tween-80
# [13] = dose: 400.0 mg/kg/injection, schedule: Q04DX003 (ip), vehicle: saline with Tween-80
# [14] = dose: 12.5 mg/kg/injection, schedule: Q01DX009 (ip), vehicle: saline
# [15] = dose: 25.0 mg/kg/injection, schedule: Q01DX009 (ip), vehicle: saline
# [16] = dose: 50.0 mg/kg/injection, schedule: Q01DX009 (ip), vehicle: Klucel (hydroxypropylcellulose) (HPC)
# [17] = dose: 100.0 mg/kg/injection, schedule: Q04DX003 (ip), vehicle: Klucel (hydroxypropylcellulose) (HPC)
# [18] = dose: 200.0 mg/kg/injection, schedule: Q04DX003 (ip), vehicle: Klucel (hydroxypropylcellulose) (HPC)
# [19] = dose: 400.0 mg/kg/injection, schedule: Q04DX003 (ip), vehicle: Klucel (hydroxypropylcellulose) (HPC)
structure (smiles),measurement,setting,value
CCOC(=O)Nc1cc2c(c(N)n1)N=C(c1ccccc1)CN2,T/C,"dose: 1.0 mg/kg/injection, schedule: Q01DX009 (ip), vehicle: saline with Tween-80",115 % of control
same,T/C,"dose: 2.0 mg/kg/injection, schedule: Q01DX009 (ip), vehicle: saline with Tween-80",151 % of control
same,T/C,"dose: 3.0 mg/kg/injection, schedule: Q01DX009 (ip), vehicle: saline with Tween-80",151 % of control
same,T/C,"dose: 3.0 mg/kg/injection, schedule: Q04DX003 (ip), vehicle: saline with Tween-80",117 % of control
FCc1nc2nc(Cl)c(Cl)nc2[nH]1,T/C,[1],96 % of control
same,T/C,"dose: 2.0 mg/kg/injection, schedule: Q01DX009 (ip), vehicle: saline",99 % of control and 100 % of control
same,T/C,"dose: 4.0 mg/kg/injection, schedule: Q01DX009 (ip), vehicle: saline",90 % of control and 105 % of control
same,T/C,"dose: 8.0 mg/kg/injection, schedule: Q01DX009 (ip), vehicle: saline",99 % of control
same,T/C,"dose: 16.0 mg/kg/injection, schedule: Q01DX009 (ip), vehicle: saline",100 % of control
same,T/C,"dose: 50.0 mg/kg/injection, schedule: Q04DX003 (ip), vehicle: saline",104 % of control
same,T/C,[2],101 % of control
Oc1c(Cl)cc(Cl)cc1C1N=NC2=C(CCCC2)N1O (stereo unspecified),T/C,[3],106 % of control
same,T/C,[4],88 % of control
same,T/C,[5],93 % of control
CC1=CCCC2(CCC3(C)CC32)C1(C)C (stereo unspecified),T/C,"dose: 45.0 mg/kg/injection, schedule: Q01DX009 (ip), vehicle: saline",90 % of control
same,T/C,[6],100 % of control
same,T/C,"dose: 67.0 mg/kg/injection, schedule: Q01DX009 (ip), vehicle: saline",109 % of control
same,T/C,[7],113 % of control and 120 % of control
C[C@@]1(O)CCCC[C@H]1O,T/C,[7],100 % of control
same,T/C,[2],110 % of control
same,T/C,[8],100 % of control
same,T/C,[9],100 % of control
same,T/C,[10],100 % of control
CCCNC(=O)/C=C\S(=O)CCC (stereo unspecified),T/C,"dose: 25.0 mg/kg/injection, schedule: Q01DX009 (ip), vehicle: saline with Tween-80",100 % of control
same,T/C,[3],98 % of control
same,T/C,[4],112 % of control
COc1cc2ccc3c4cc5c(cc4c[n+](C)c3c2cc1OC)OCO5,T/C,"dose: 20.0 mg/kg/injection, schedule: Q01DX009 (ip), vehicle: saline",122 % of control
same,T/C,"dose: 40.0 mg/kg/injection, schedule: Q01DX009 (ip), vehicle: saline",154 % of control and 159 % of control
same,T/C,"dose: 80.0 mg/kg/injection, schedule: Q01DX009 (ip), vehicle: saline",113 % of control
same,T/C,"dose: 120.0 mg/kg/injection, schedule: Q01DX009 (ip), vehicle: saline",86 % of control
CC(C)CCCCc1c[nH]c(=O)[nH]c1=O,T/C,[11],100 % of control
same,T/C,[12],100 % of control
same,T/C,[13],100 % of control
CCCCCCCCCCCCCCCC(=O)N(CCC#N)CCC#N,T/C,"dose: 66.0 mg/kg/injection, schedule: Q01DX009 (ip), vehicle: saline with Tween-80",91 % of control
same,T/C,[4],91 % of control
same,T/C,"dose: 150.0 mg/kg/injection, schedule: Q01DX009 (ip), vehicle: saline with Tween-80",108 % of control
CCOc1nsc(OCC)n1,T/C,"dose: 100.0 mg/kg/injection, schedule: Q01DX001 (ip), vehicle: Klucel (hydroxypropylcellulose) (HPC)",86 % of control
same,T/C,"dose: 200.0 mg/kg/injection, schedule: Q01DX001 (ip), vehicle: Klucel (hydroxypropylcellulose) (HPC)",104 % of control
O=C1C=C(C2CCCCC2)C(=O)C2CCCCC12 (stereo unspecified),T/C,[2],110 % of control
same,T/C,[9],105 % of control
same,T/C,[10],120 % of control
CCCC(Nc1nccs1)Nc1nccs1,T/C,[3],107 % of control
same,T/C,[4],101 % of control
same,T/C,[5],101 % of control
CC(CCCN(CCCl)CCCl)Nc1ccnc2cc(Cl)ccc12 (stereo unspecified),T/C,"dose: 0.5 mg/kg/injection, schedule: Q04DX003 (ip), vehicle: saline",100 % of control
same,T/C,"dose: 0.66 mg/kg/injection, schedule: Q01DX009 (ip), vehicle: saline",154 % of control
same,T/C,[1],154 % of control
same,T/C,"dose: 1.0 mg/kg/injection, schedule: Q04DX003 (ip), vehicle: saline",100 % of control
same,T/C,"dose: 2.0 mg/kg/injection, schedule: Q04DX003 (ip), vehicle: saline",111 % of control
N#Cc1cnc2nc1NCCCCCCC2,T/C,[11],86 % of control
CC[C@]1(O)CC(OC2CC(N(C)C)C(O)C(C)O2)c2c(cc3c(c2O)C(=O)c2c(O)cccc2C3=O)[C@@H]1C(=O)OC (stereo partly specified),T/C,"dose: 1.25 mg/kg/injection, schedule: Q01DX001 (ip), vehicle: saline",104 % of control and 110 % of control
same,T/C,"dose: 2.5 mg/kg/injection, schedule: Q01DX001 (ip), vehicle: saline",100 % of control and 109 % of control
same,T/C,"dose: 5.0 mg/kg/injection, schedule: Q01DX001 (ip), vehicle: saline",100 % of control
same,T/C,"dose: 10.0 mg/kg/injection, schedule: Q01DX001 (ip), vehicle: saline",100 % of control
C1CCc2nnnn2CC1,T/C,"dose: 2.34 mg/kg/injection, schedule: Q04DX003 (ip), vehicle: saline",91 % of control
same,T/C,"dose: 4.68 mg/kg/injection, schedule: Q04DX003 (ip), vehicle: saline",91 % of control
same,T/C,"dose: 9.37 mg/kg/injection, schedule: Q04DX003 (ip), vehicle: saline",91 % of control
same,T/C,[14],118 % of control
same,T/C,"dose: 18.75 mg/kg/injection, schedule: Q04DX003 (ip), vehicle: saline",100 % of control
same,T/C,[15],118 % of control
CCOC(=O)C(C(=O)OCC)=C(C#N)c1c[nH]c2ccccc12,T/C,"dose: 12.5 mg/kg/injection, schedule: Q01DX009 (ip), vehicle: Klucel (hydroxypropylcellulose) (HPC)",90 % of control
same,T/C,"dose: 25.0 mg/kg/injection, schedule: Q01DX009 (ip), vehicle: Klucel (hydroxypropylcellulose) (HPC)",104 % of control
same,T/C,[16],104 % of control
same,T/C,[17],95 % of control
same,T/C,[18],100 % of control
same,T/C,[19],109 % of control
CC(=O)Nc1nnc(/C=C/c2ccc([N+](=O)[O-])o2)s1,T/C,[19],100 % of control
COc1cc(/C=N\O)nc(-c2ccccn2)c1,T/C,[14],120 % of control
same,T/C,[15],96 % of control and 120 % of control
same,T/C,[6],111 % of control and 123 % of control
same,T/C,[7],114 % of control
O=C(NC(Cc1nn[nH]n1)C(=O)OCc1ccccc1)OCc1ccccc1 (stereo unspecified),T/C,[4],100 % of control
same,T/C,[11],111 % of control
same,T/C,[5],96 % of control
same,T/C,[12],94 % of control
same,T/C,[13],87 % of control
C1CCC2[N-]CC3CCCCC3[N-]CC3CCCCC3[N-]CC3CCCCC3[N-]CC2C1.[Cu] (stereo unspecified),T/C,"dose: 0.39 mg/kg/injection, schedule: Q01DX009 (ip), vehicle: saline",107 % of control
same,T/C,"dose: 0.78 mg/kg/injection, schedule: Q01DX009 (ip), vehicle: saline",113 % of control
same,T/C,"dose: 3.12 mg/kg/injection, schedule: Q01DX009 (ip), vehicle: saline",166 % of control
same,T/C,"dose: 6.25 mg/kg/injection, schedule: Q01DX009 (ip), vehicle: saline",96 % of control
Cc1ccc(S(=O)(=O)NCCCCCC(=O)OCc2ccccc2)cc1,T/C,[6],99 % of control
same,T/C,[7],108 % of control
same,T/C,[8],100 % of control
Cc1cccc2c1CC(C(C)C)C2 (stereo unspecified),T/C,[4],123 % of control
same,T/C,[5],103 % of control
C[C@]12C=CC(=O)C=C1CC[C@H]1[C@@H]3C[C@@H](O)[C@](O)(C(=O)CO)[C@@]3(C)C[C@H](O)[C@@]12F,T/C,[16],100 % of control
same,T/C,"dose: 132.0 mg/kg/injection, schedule: Q01DX009 (ip), vehicle: Klucel (hydroxypropylcellulose) (HPC)",118 % of control
same,T/C,"dose: 200.0 mg/kg/injection, schedule: Q01DX009 (ip), vehicle: Klucel (hydroxypropylcellulose) (HPC)",113 % of control
O=C(Cc1ccc([N+](=O)[O-])cc1)c1ccc(O)cc1O,T/C,"dose: 50.0 mg/kg/injection, schedule: Q04DX003 (ip), vehicle: Klucel (hydroxypropylcellulose) (HPC)",86 % of control
same,T/C,[17],95 % of control
same,T/C,[18],90 % of control
CC12CCC(C)(O)C(CC3=C1CCc1ccccc13)C2=O (stereo unspecified),T/C,"dose: 75.0 mg/kg/injection, schedule: Q04DX003 (ip), vehicle: saline",100 % of control
same,T/C,"dose: 150.0 mg/kg/injection, schedule: Q04DX003 (ip), vehicle: saline",91 % of control
same,T/C,"dose: 300.0 mg/kg/injection, schedule: Q04DX003 (ip), vehicle: saline",95 % of control
[N-]=[N+]=NCc1cnccn1,T/C,[14],100 % of control
same,T/C,[15],113 % of control
